Test results from patent US20080305547A1, “Method for enhanced functional expression of cell receptors” (priority 2007, published 2008).

Legend:
[1] = biological target: T1, mOR-EG (Mus musculus, UniProt Q920P2); experiment: cAMP ELISA in transfected HEK293T cells expressing mOR-EG; assay type: cell-based, murine; conditions: cells transfected with mOR-EG, Ric-8B and Gαolf; 300 μM
T1 construct: expressed in transfected cells; host or cells: HEK293T
T1 sequence (Q920P2 1-313): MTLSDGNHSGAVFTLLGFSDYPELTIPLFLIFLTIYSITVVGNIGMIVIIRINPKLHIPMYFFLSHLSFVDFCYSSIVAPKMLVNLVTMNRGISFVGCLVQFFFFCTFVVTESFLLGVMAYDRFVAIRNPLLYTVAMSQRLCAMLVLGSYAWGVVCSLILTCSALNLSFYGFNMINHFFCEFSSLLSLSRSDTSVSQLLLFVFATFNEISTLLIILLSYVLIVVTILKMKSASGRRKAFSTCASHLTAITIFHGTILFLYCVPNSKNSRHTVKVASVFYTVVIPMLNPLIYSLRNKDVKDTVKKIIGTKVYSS
Procedure: (§1) These experiments were carried out in order to determine if Ric-8B amplifies signaling through odorant receptors (“ORs” hereafter). This was accomplished by using one of the murine ORs, i.e., first cloning murine OR-EG (“mOR-EG” hereafter), from murine genomic DNA via polymerase chain reaction (“PCR”), using standard method. Following this, receptor specificity was confirmed by functional expression of the rhodopsin tagged version of mOR-EG, in HEK293T cells. This is explained infra.
(§2) HEK293T cells were plated, at 0.5×10^5 cells/well, of a 96 well plate. The cells were cultured using standard conditions, for 16-20 hours, after which they were transfected, via the well known, lipofectamine method with mOR-EG cDNA that had been subcloned into the XboI and KpnI restriction sites of plasmid pcDNA 3.1 (−), Gαolf whose full length cDNA had been cloned from murine olfactory epithelium, and subcloned into the XboI site of pcDNA 3.1 (−) expression vector, and Ric-8B, whose full length encoding cDNA had been prepared the same way and then cloned into pcDNA3 vector, with a flag epitope, at the BamHI site of pcDNA3 were used. 100 ngs of each cDNA construct were used for transfection. After 3 hours of transfection, serum containing medium was replaced by serum free medium, and the cells were incubated for 40 hours. Then, additional serum free medium containing 300 μM of eugenol was added, after which cells were incubated for 10 minutes. Activity was determined, by using a commercially available, cAMP ELISA kit.
(§3) In these experiments, mOR-EG odorant specificity was tested, in cells which had also been transfected with Ric-8B and Gαolf Vanillin, nonenedoic acid, acetophenone, (−), limonene, heptanol, 2-heptanol, hexanol, and (+/−) cerveone were tested at high concentrations (300 μM).

[2] = test system: mOR-S6; conditions: murine olfactory neurons, single cell RT-PCR; cited from earlier work
[3] = test system: mOR-S6; experiment: cAMP ELISA in transfected HEK293T cells expressing mOR-S6; assay type: cell-based, murine
Procedure: as §2
The same procedures set forth supra for isolating, cloning, and amplifying mOR-EG were used for the coding region of mOR-S6. Rhodopsin tagged mOR-S6 was also used. The same protocols were carried out as are discussed supra, using nonanedoic acid as the agonist.

[4] = biological target: T2, mOR-EG (Mus musculus, UniProt Q920P2); conditions: previously shown; cited from earlier work
T2 construct: expressed in transfected cells; host or cells: HEK293T
T2 sequence (Q920P2 with tags, fused parts or gaps): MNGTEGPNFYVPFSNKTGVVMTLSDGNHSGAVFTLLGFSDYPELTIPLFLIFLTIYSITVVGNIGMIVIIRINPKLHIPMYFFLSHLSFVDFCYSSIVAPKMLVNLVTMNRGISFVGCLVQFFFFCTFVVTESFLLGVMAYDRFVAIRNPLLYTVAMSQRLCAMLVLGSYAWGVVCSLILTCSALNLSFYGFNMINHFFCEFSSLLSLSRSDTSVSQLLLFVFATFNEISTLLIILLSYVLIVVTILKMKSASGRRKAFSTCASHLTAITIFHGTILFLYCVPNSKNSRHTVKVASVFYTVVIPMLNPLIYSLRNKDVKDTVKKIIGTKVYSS

[5] = biological target: T3, rat OR-17 (Rattus norvegicus, UniProt P23270); conditions: cited from earlier work
T3 sequence (P23270 1-327): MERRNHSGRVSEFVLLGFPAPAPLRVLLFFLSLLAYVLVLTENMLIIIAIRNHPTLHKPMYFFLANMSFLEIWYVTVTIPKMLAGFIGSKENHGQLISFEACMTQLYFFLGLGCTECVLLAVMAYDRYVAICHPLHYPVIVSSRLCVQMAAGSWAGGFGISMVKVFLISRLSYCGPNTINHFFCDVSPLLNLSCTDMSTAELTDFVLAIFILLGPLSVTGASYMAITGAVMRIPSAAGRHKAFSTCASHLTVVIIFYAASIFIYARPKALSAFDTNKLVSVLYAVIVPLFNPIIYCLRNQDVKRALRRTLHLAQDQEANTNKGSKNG

[6] = biological target: T1, mOR-EG; experiment: cAMP ELISA in transfected HEK293T cells expressing mOR-EG; assay type: cell-based, murine; conditions: HEK293T transfected with untagged mOR-EG and Gαolf; 300 μM, 10 minutes
[7] = biological target: T2, mOR-EG; experiment: as above; assay type: cell-based, murine; conditions: HEK293T transfected with rhodopsin tagged mOR-EG, Gαolf (and Ric-8B); 300 μM, 10 minutes
Procedure: as §1, §2, §3

[8] = biological target: T4, OR-17 (Mus musculus, UniProt Q9QWU6); conditions: GFP tagged mouse olfactory neurons endogenously expressing OR-17; cited from earlier work
T4 construct: mouse olfactory neurons which endogenously express OR-17; host or cells: mouse olfactory neurons
T4 sequence (Q9QWU6 1-327): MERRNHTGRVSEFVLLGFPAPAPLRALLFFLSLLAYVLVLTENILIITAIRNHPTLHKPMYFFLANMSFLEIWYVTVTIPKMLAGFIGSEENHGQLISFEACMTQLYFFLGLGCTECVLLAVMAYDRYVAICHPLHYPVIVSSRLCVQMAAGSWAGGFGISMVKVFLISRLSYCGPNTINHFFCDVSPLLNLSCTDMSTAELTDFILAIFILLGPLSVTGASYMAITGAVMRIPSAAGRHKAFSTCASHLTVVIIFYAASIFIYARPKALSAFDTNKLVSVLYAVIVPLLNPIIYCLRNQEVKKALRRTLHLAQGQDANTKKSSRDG

[9] = biological target: T5, murine form of OR-17 (Mus musculus, UniProt Q9QWU6); conditions: co-expression with Gα/16 in HEK293 cells; cited from earlier work
T5 construct: host or cells: HEK293
T5 sequence (Q9QWU6 1-327): T4 sequence (Q9QWU6 1-327)

[10] = biological target: T6, mOR-17 (Mus musculus, UniProt Q9QWU6); experiment: cAMP ELISA in transfected HEK293T cells expressing mOR-17; assay type: cell-based, murine
T6 construct: expressed in transfected cells; host or cells: HEK293T
T6 sequence (Q9QWU6 1-327): T4 sequence (Q9QWU6 1-327)
Procedure: as §2
To further this work, the same protocols as are described supra were carried out, using untagged mOR-17, Gαolf, Ric-8B, and RTP1.

## CCCCCCCO [heptanol]
[1]
  stimulation of cAMP production (odorant specificity): Only eugenol stimulated production of cAMP

## CCCCCC(C)O (stereo not drawn) [2-heptanol]
[1]
  stimulation of cAMP production (odorant specificity): Only eugenol stimulated production of cAMP

## C=C(C)C1CC=C(C)C(=O)C1 (racemic) [(+/−) cerveone, cerveone]
[1]
  stimulation of cAMP production (odorant specificity): Only eugenol stimulated production of cAMP

## O=C(O)CCCCCCCC(=O)O [nonanedoic acid]
[2]
  response of the OR to the odorant: responded
[3]; all four elements: rhodopsin tagged mOR-S6, Ric-8B, RTP1 and Gαolf
  increase in cAMP production: significant increase
[3]; cells co-transfected with mOR-S6, Gαolf and Ric-8B
  increase in cAMP production: no significant increase
[3]; cells co-transfected with mOR-S6 and Gαolf
  increase in cAMP production: no significant increase
[3]; mOR-S6, Gαolf and RTP1 (RTP1 replaced Ric-8B)
  increase in cAMP production: slight, insignificant increase
[3]; non-tagged mOR-S6 in parallel expression systems (Ric-8B, RTP1, Gαolf)
  increase in cAMP production: not observed
[1]
  stimulation of cAMP production (odorant specificity): Only eugenol stimulated production of cAMP

## CCCCCCO [hexanol]
[1]
  stimulation of cAMP production (odorant specificity): Only eugenol stimulated production of cAMP

## COc1cc(C=O)ccc1O [Vanillin]
[4]
  stimulation of rhodopsin tagged mOR-EG: has been shown to stimulate
[1]
  stimulation of cAMP production (odorant specificity): Only eugenol stimulated production of cAMP

## C=C(C)[C@H]1CC=C(C)CC1 [limonene]
[1]
  stimulation of cAMP production (odorant specificity): Only eugenol stimulated production of cAMP

## CC(=O)c1ccccc1 [acetophenone]
[1]
  stimulation of cAMP production (odorant specificity): Only eugenol stimulated production of cAMP

## CCCCCCCCO [octanol]
[5]
  recognition of odorant by receptor: recognizes

## C=CCc1ccc(O)c(OC)c1 [eugenol]
[6]
  response to the agonist (cAMP): did not respond
[7]
  increase in cAMP levels as compared to unstimulated cells (factor): ~3
[1]
  stimulation of cAMP production (odorant specificity): stimulated production of cAMP

## CCCCCCC=O [heptanal]
[8]
  recognition of odorant by receptor: recognized
[9]
  recognition of odorant by receptor: preferentially recognizes
[10]; all four elements: untagged mOR-17, Gαolf, Ric-8B and RTP1
  response of transfected cells to odorant (cAMP): responded to heptanal specifically
[10]; untagged mOR-17, Gαolf and RTP1 (RTP1 replaced Ric-8B)
  response of transfected cells to odorant (cAMP): did not
[10]; untagged mOR-17, Gαolf and Ric-8B
  response of transfected cells to odorant (cAMP): responded
